Test results from patent publication US8088925B2, “Heteroaryl-carboxylic acid (sulfamoyl alkyl) amide-derivatives as factor Xa inhibitors” (priority 2005, dated 2012).

Target: T1, human factor Xa (Homo sapiens, UniProt P00742)
T1 construct: human factor Xa; purchased Enzyme Research Laboratories, Inc; South Bend, Ind
Experiment: Factor Xa assay (chromogenic, purified enzyme)
Assay type: biochemical
Conditions: inhibition constant for factor Xa; chromogenic substrate S-2765 140 μM, enzyme 0.5 nM, 25° C.; Ki=IC50/{1+(substrate concentration/Km)}; read-out: Ki (FXa)
Protocol: Purified enzymes were used in chromogenic assays.
The assay was performed by pre-incubating the compound of formula I or Ia plus enzyme for 10 min. Then the assay was initiated by adding substrate to obtain a final volume of 100 μl. The initial velocity of chromogenic substrate hydrolysis was measured by the change in absorbance at 405 nm using a Bio-tek Instruments kinetic plate reader (Ceres UV900HDi) at 25° C. during the linear portion of the time course (usually 1.5 min after addition of substrate).

T1 sequence (P00742 235-488 limits assumed): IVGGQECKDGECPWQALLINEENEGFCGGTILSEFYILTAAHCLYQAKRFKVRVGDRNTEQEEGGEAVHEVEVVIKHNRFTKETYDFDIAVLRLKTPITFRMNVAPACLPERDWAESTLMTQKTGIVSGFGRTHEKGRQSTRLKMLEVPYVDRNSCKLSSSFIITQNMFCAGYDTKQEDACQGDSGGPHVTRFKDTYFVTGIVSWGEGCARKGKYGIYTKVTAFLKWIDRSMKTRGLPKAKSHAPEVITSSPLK
T1 sequence (P00742 41-179 partner limits assumed): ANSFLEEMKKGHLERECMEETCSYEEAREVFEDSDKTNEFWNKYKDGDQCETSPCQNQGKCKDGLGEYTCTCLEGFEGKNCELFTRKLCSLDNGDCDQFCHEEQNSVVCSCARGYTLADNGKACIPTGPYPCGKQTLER

SMILES | Ki [nM]
O=C(NCCS(=O)(=O)NC1CNC1)c1ccc(Cl)s1 [Example 6, 5-Chloro-thiophene-2-carboxylic acid[2-(azetidin-3-ylsulfamoyl)-ethyl]-amide] | 20500
COCCN(C1CCN(C(C)C)CC1)S(=O)(=O)CCNC(=O)c1ccc(Cl)s1 [Example 15, 5-Chloro-thiophene-2-carboxylic acid {2-[(1-isopropyl-piperidin-4-yl)-(2-methoxy-ethyl)-sulfamoyl]-ethyl}-amide] | 5
O=C(NCCS(=O)(=O)NN1CCN(Cc2ccccc2)CC1)c1ccc(Cl)s1 [Example 8, 5-Chloro-thiophene-2-carboxylic acid [2-(4-benzyl-piperazin-1-ylsulfamoyl)-ethyl]-amide] | 1100
Cc1ccc(C(=O)NCCS(=O)(=O)NC2CCN(C(C)C)CC2)s1 [Example 10, 5-Methyl-thiophene-2-carboxylic acid [2-(1-isopropyl-piperidin-4-ylsulfamoyl)-ethyl]-amide] | 259
CC(C)N1CCC(N(CC(N)=O)S(=O)(=O)CCNC(=O)c2ccc(Cl)s2)CC1 [Example 20, 5-Chloro-thiophene-2-carboxylic acid {2-[carbamoylmethyl-(1-isopropyl-piperidin-4-yl)-sulfamoyl]-ethyl}-amide] | 3
Cc1cc(CN(C2CCN(C(C)C)CC2)S(=O)(=O)CCNC(=O)c2ccc(Cl)s2)no1 [Example 21, 5-Chloro-thiophene-2-carboxylic acid {2-[(1-isopropyl-piperidin-4-yl)-(5-methyl-isoxazol-3-ylmethyl)-sulfamoyl]-ethyl}-amide] | 4
O=C(NCCS(=O)(=O)NC1CCN(c2ccncc2)CC1)c1ccc(Cl)s1 [Example 5, 5-Chloro-thiophene-2-carboxylic acid [2-(3,4,5,6-tetrahydro-2H-[1,4′]bipyridinyl-4-ylsulfamoyl)-ethyl]-amide] | 66
CC(C)N1CCC(N(CCO)S(=O)(=O)CCNC(=O)c2ccc(Cl)s2)CC1 [Example 16, 5-Chloro-thiophene-2-carboxylic acid {2-[(2-hydroxy-ethyl)-(1-isopropyl-piperidin-4-yl)-sulfamoyl]-ethyl}-amide] | 4
CC(C)N1CC(NS(=O)(=O)CCNC(=O)c2ccc(Cl)s2)C1 [Example 7, 5-Chloro-thiophene-2-carboxylic acid [2-(1-isopropyl-azetidin-3-ylsulfamoyl)-ethyl]-amide] | 7250
O=C(NCCS(=O)(=O)NC1CCN(C2CC2)CC1)c1ccc(Cl)s1 [Example 2, 5-Chloro-thiophene-2-carboxylic acid [2-(1-cyclopropyl-piperidin-4-ylsulfamoyl)-ethyl]-amide] | 167
CC(C)N1CCC(NS(=O)(=O)CCCNC(=O)c2ccc(Cl)s2)CC1 [Example 29, 5-Chloro-thiophene-2-carboxylic acid [3-(1-isopropyl-piperidin-4-ylsulfamoyl)-propyl]-amide] | 399
CC(C)N1CCC(NS(=O)(=O)C(C)CNC(=O)c2ccc(Cl)s2)CC1 (racemic) [Example 26, 5-Chloro-thiophene-2-carboxylic acid [2-(1-isopropyl-piperidin-4-ylsulfamoyl)-propyl]-amide] | 13
CCCNC(=O)N(C1CCN(C(C)C)CC1)S(=O)(=O)CCNC(=O)c1ccc(Cl)s1 [Example 24, 5-Chloro-thiophene-2-carboxylic acid {2-[(1-isopropyl-piperidin-4-yl)-propylaminocarbonyl-sulfamoyl]-ethyl}-amide] | 4
CC(C)N1CCC(N(CC(F)(F)F)S(=O)(=O)CCNC(=O)c2ccc(Cl)s2)CC1 [Example 4, 5-Chloro-thiophene-2-carboxylic acid {2-[(1-isopropyl-piperidin-4-yl)-(2,2,2-trifluoro-ethyl)-sulfamoyl]-ethyl}-amide] | 15
CC(C)N1CCC(N(Cc2cc(-c3ccc(Cl)s3)on2)S(=O)(=O)CCNC(=O)c2ccc(Cl)s2)CC1 [Example 32, 5-Chloro-thiophene-2-carboxylic acid {2-[[5-(5-chloro-thiophen-2-yl)-isoxazol-3-ylmethyl]-(1-isopropyl-piperidin-4-yl)-sulfamoyl]-ethyl}-amide] | 6
CC(C)N1CCC(NS(=O)(=O)CC(C)(C)NC(=O)c2ccc(Cl)s2)CC1 [Example 28, 5-Chloro-thiophene-2-carboxylic acid [2-(1-isopropyl-piperidin-4-ylsulfamoyl)-1,1-dimethyl-ethyl]-amide] | 3390
CC(C)N1CCC(NS(=O)(=O)C[C@H](CO)NC(=O)c2ccc(Cl)s2)CC1 [Example 27, 5-Chloro-thiophene-2-carboxylic acid [(S)-1-hydroxymethyl-2-(1-isopropyl-piperidin-4-ylsulfamoyl)-ethyl]-amide] | 1250
CC(=O)N(C1CCN(C(C)C)CC1)S(=O)(=O)CCNC(=O)c1ccc(Cl)s1 [Example 25, 5-Chloro-thiophene-2-carboxylic acid {2-[acetyl-(1-isopropyl-piperidin-4-yl)-sulfamoyl]-ethyl}-amide] | 3
CC(C)N1CCC(N2C(=O)CC(CNC(=O)c3ccc(Cl)s3)S2(=O)=O)CC1 (racemic) [Example 31, 5-Chloro-thiophene-2-carboxylic acid [2-(1-isopropyl-piperidin-4-yl)-1,1,3-trioxo-1λ^6-isothiazolidin-5-ylmethyl]-amide] | 32

More lines, in order of falling Ki, values ahead:

Ki [nM] | SMILES
19600 | CC(C)N1CCC(NS(=O)(=O)CCNC(=O)c2cccc(Cl)c2)CC1 [Example 14, 3-Chloro-N-[2-(1-isopropyl-piperidin-4-ylsulfamoyl)-ethyl]-benzamide]
4470 | CC(C)N1CCC(NS(=O)(=O)CCNC(=O)c2ccc(Cl)cn2)CC1 [Example 13, 5-Chloro-pyridine-2-carboxylic acid [2-(1-isopropyl-piperidin-4-ylsulfamoyl)-ethyl]-amide]
3150 | CC(C)N1CCC(NS(=O)(=O)CCNC(=O)c2ccc(Br)o2)CC1 [Example 11, 5-Bromo-furan-2-carboxylic acid [2-(1-isopropyl-piperidin-4-ylsulfamoyl)-ethyl]-amide]
572 | CC(C)N1CCC(NS(=O)(=O)CCNC(=O)c2ccc(Cl)cc2)CC1 [Example 12, 4-Chloro-N-[2-(1-isopropyl-piperidin-4-ylsulfamoyl)-ethyl]-benzamide]
10 | CC(C)N1CCC(NS(=O)(=O)CCNC(=O)c2ccc(Cl)s2)CC1 [Example 1, 5-Chloro-thiophene-2-carboxylic acid [2-(1-isopropyl-piperidin-4-ylsulfamoyl)-ethyl]-amide]
8 | CC(C)N1CCC(N(Cc2cccnc2)S(=O)(=O)CCNC(=O)c2ccc(Cl)s2)CC1 [Example 22, 5-Chloro-thiophene-2-carboxylic acid {2-[(1-isopropyl-piperidin-4-yl)-pyridin-3-ylmethyl-sulfamoyl]-ethyl}-amide]
7 | CC(C)N1CCC(N(C)S(=O)(=O)CCNC(=O)c2ccc(Cl)s2)CC1 [Example 3, 5-Chloro-thiophene-2-carboxylic acid {2-[(1-isopropyl-piperidin-4-yl)-methyl-sulfamoyl]-ethyl}-amide]
6 | CC(C)N1CCC(N(Cc2nnc(C3CC3)s2)S(=O)(=O)CCNC(=O)c2ccc(Cl)s2)CC1 [Example 33, 5-Chloro-thiophene-2-carboxylic acid {2-[(5-cyclopropyl-[1,3,4]thiadiazol-2-ylmethyl)-(1-isopropyl-piperidin-4-yl)-sulfamoyl]-ethyl}-amide]
6 | CC(C)N1CCC(NS(=O)(=O)CCNC(=O)c2ccc(Br)s2)CC1 [Example 9, 5-Bromo-thiophene-2-carboxylic acid[2-(1-isopropyl-piperidin-4-ylsulfamoyl)-ethyl]-amide]
6 | CC(C)N1CCC(N(Cc2nccs2)S(=O)(=O)CCNC(=O)c2ccc(Cl)s2)CC1 [Example 23, 5-Chloro-thiophene-2-carboxylic acid {2-[(1-isopropyl-piperidin-4-yl)-thiazol-2-ylmethyl-sulfamoyl]-ethyl}-amide]
5 | CC(C)N1CCC(N(CC(=O)N2CCOCC2)S(=O)(=O)CCNC(=O)c2ccc(Cl)s2)CC1 [Example 19, 5-Chloro-thiophene-2-carboxylic acid {2-[(1-isopropyl-piperidin-4-yl)-(2-morpholin-4-yl-2-oxo-ethyl)-sulfamoyl]-ethyl}-amide]
5 | CC(C)N1CCC(N(CC(=O)N(C)C)S(=O)(=O)CCNC(=O)c2ccc(Cl)s2)CC1 [Example 18, 5-Chloro-thiophene-2-carboxylic acid {2-[dimethylcarbamoylmethyl-(1-isopropyl-piperidin-4-yl)-sulfamoyl]-ethyl}-amide]
4 | CC(C)N1CCC(N(CCCO)S(=O)(=O)CCNC(=O)c2ccc(Cl)s2)CC1 [Example 17, 5-Chloro-thiophene-2-carboxylic acid {2-[(3-hydroxy-propyl)-(1-isopropyl-piperidin-4-yl)-sulfamoyl]-ethyl}-amide]
